Measured values published in ChEMBL document CHEMBL5149986, “Spliceostatins and Derivatives: Chemical Syntheses and Biological Properties of Potent Splicing Inhibitors” (J Nat Prod, 2021).
Square brackets hold non-standard residues; d marks the D form. Peptide text beside a SMILES is read from it. * marks the point of attachment. Dolaproine = CO[C@@H]([C@@H]1CCCN1)[C@@H](C)C(=O)O; Dil = CC[C@H](C)[C@H](NC)[C@@H](CC(=O)O)OC; X1 = C[C@@H](N*)[C@@H](O)c1ccccc1; NMeV = CN[C@H](C(=O)O)C(C)C

How the values were obtained:
[1] = Inhibition of pre-mRNA splicing in human HeLa nuclear extract in presence of ATP; type: cell-free
[2] = tested on: MES-SA/Dx5; assay: Cytotoxicity against human MES-SA/Dx5 cells assessed as inhibition in cell growth; type: functional, cell-based
[3] = tested on: MES-SA; assay: Cytotoxicity against human MES-SA cells assessed as inhibition in cell growth; type: functional, cell-based
[4] = Cytotoxicity against HEK293T cells assessed as inhibition in cell growth; type: toxicity, cell-based, HEK-293T; conditions: human
[5] = tested on: L1210; assay: Cytotoxicity against mouse L1210 cells assessed as inhibition in cell growth; type: functional, cell-based
[6] = tested on: HCT-116; assay: Cytotoxicity against human HCT-116 cells assessed as inhibition in cell growth; type: functional, cell-based
[7] = tested on: HCT-116/VM46; assay: Cytotoxicity against human HCT116/VM46 cells assessed as inhibition in cell growth; type: functional, cell-based

SMILES | IC50 [1] | IC50 [2] | IC50 [3] | IC50 [4] | IC50 [5] | IC50 [6] | IC50 [7]
CC(=O)O[C@@H](C)/C=C\C(=O)N[C@H]1C[C@H](C)[C@H](C/C=C(C)/C=C/[C@H]2O[C@](C)(O)C[C@]3(CO3)[C@H]2O)O[C@@H]1C | 20000 nM | – | – | – | – | – | –
CC(=O)O[C@@H](C)/C=C\C(=O)N[C@H]1C[C@H](C)[C@H](C/C=C(C)/C=C/[C@H]2O[C@](C)(O)C[C@@]3(CO3)[C@@H]2O)O[C@@H]1C | 1000 nM | – | – | – | – | – | –
COC(=O)C[C@@H]1C[C@@]2(CO2)[C@H](O)[C@@H](/C=C/C(C)=C/C[C@@H]2O[C@H](C)[C@H](NC(=O)/C=C\[C@H](C)OC(C)=O)C[C@@H]2C)O1 | 400 nM | 3.6 nM | 0.32 nM | 0.36 nM | – | – | –
CC(/C=C/[C@H]1OC(C)(C)C[C@@]2(CO2)[C@@H]1O)=C\C[C@@H]1O[C@H](C)[C@H](NC(=O)/C=C\[C@H](C)OC(=O)N2CCCCC2)C[C@@H]1C | – | – | – | – | 0.6 nM | 0.68 nM | 0.59 nM
CO[C@]1(C)C[C@]2(CO2)[C@@H](O)[C@@H](/C=C/C(C)=C/C[C@@H]2O[C@H](C)[C@H](NC(=O)/C=C\[C@H](C)OC(C)=O)C[C@@H]2C)O1 | 1500 nM | – | – | – | – | – | –
CO[C@]1(C)C[C@@]2(CO2)[C@H](O)[C@@H](/C=C/C(C)=C/C[C@@H]2O[C@H](C)[C@H](NC(=O)/C=C\[C@H](C)OC(C)=O)C[C@@H]2C)O1 | 10 nM | – | – | – | – | – | –
CC(/C=C/[C@H]1O[C@H](CC(=O)NCCC(=O)O)C[C@@]2(CO2)[C@@H]1O)=C\C[C@@H]1O[C@H](C)[C@H](NC(=O)/C=C\[C@H](C)OC(=O)C(C)C)C[C@@H]1C | – | 74 nM | 4.58 nM | 1.44 nM | – | – | –
CC(/C=C/[C@H]1O[C@H](C)C[C@@]2(CO2)[C@@H]1O)=C\C[C@@H]1O[C@H](C)[C@H](NC(=O)/C=C\[C@H](C)OC(=O)N2CCN(C(=O)OC(C)(C)C)CC2)C[C@@H]1C | – | 7.01 nM | 2.87 nM | 0.018 nM | – | – | –
CO[C@@H]1C[C@@]2(CO2)[C@H](OC(C)=O)[C@@H](/C=C/C(C)=C/C[C@@H]2O[C@H](C)[C@H](NC(=O)/C=C\[C@H](C)OC(C)=O)C[C@@H]2C)O1 | – | 1.98 nM | 1.76 nM | 0.031 nM | – | – | –
CC(/C=C/[C@H]1O[C@H](C)C[C@@]2(CO2)[C@@H]1O)=C\C[C@@H]1O[C@H](C)[C@H](NC(=O)/C=C\[C@H](C)NC(=O)N2CCOCC2)C[C@@H]1C | – | 100 nM | 2.87 nM | 0.3 nM | – | – | –
CO[C@@H]1C[C@@]2(CO2)[C@H](O)[C@@H](/C=C/C(C)=C/C[C@@H]2O[C@H](C)[C@H](NC(=O)/C=C\[C@H](C)NC(=O)C(C)C)C[C@@H]2C)O1 | – | 384 nM | 6.16 nM | 0.058 nM | – | – | –
CC(=O)O[C@@H](C)/C=C\C(=O)N[C@@H]1C[C@H](C)[C@H](C/C=C(C)/C=C/[C@H]2O[C@H](CCO)C[C@@]3(CO3)[C@@H]2O)O[C@@H]1C | – | 3.21 nM | 0.072 nM | 0.007 nM | – | – | –
CC(=O)O[C@@H](C)/C=C\C(=O)N[C@@H]1C[C@H](C)[C@H](C/C=C(C)/C=C/[C@H]2O[C@](C)(O)C[C@]3(CO3)[C@H]2O)O[C@@H]1C | 35000 nM | – | – | – | – | – | –
CC(=O)O[C@@H](C)/C=C\C(=O)N[C@@H]1C[C@H](C)[C@H](C/C=C(C)/C=C/[C@H]2O[C@H](CC(=O)OC(C)(C)C)C[C@@]3(CO3)[C@@H]2O)O[C@@H]1C | – | 0.48 nM | 1.37 nM | 0.005 nM | – | – | –
CO[C@]1(C)C[C@@]2(CO2)[C@H](O)[C@@H](/C=C/C(C)=C/C[C@@H]2O[C@H](C)[C@@H](NC(=O)/C=C\[C@H](C)OC(C)=O)C[C@@H]2C)O1 | 1000 nM | – | – | – | – | – | –
CC(/C=C/[C@H]1OC(C)(C)C[C@@]2(CO2)[C@@H]1O)=C\C[C@@H]1O[C@H](C)[C@H](NC(=O)/C=C\[C@H](C)OC(=O)N2CCOCC2)C[C@@H]1C | – | – | – | – | 7.8 nM | 0.49 nM | 0.55 nM
CC(/C=C/[C@H]1OC(C)(C)C[C@@]2(CO2)[C@@H]1O)=C\C[C@@H]1O[C@H](C)[C@H](NC(=O)/C=C\[C@H](C)O)C[C@@H]1C | – | – | – | – | 0.54 nM | 9.7 nM | 7.4 nM
CC(=O)O[C@@H](C)/C=C\C(=O)N[C@@H]1C[C@H](C)[C@H](C/C=C(C)/C=C/[C@H]2O[C@H](CC(=O)OC(C)(C)C)C[C@@](O)(CCl)[C@@H]2O)O[C@@H]1C | – | 5.16 nM | 14.9 nM | 0.033 nM | – | – | –
CO[C@@H]1C[C@@]2(CO2)[C@H](O)[C@@H](/C=C/C(C)=C/C[C@@H]2O[C@H](C)[C@H](NC(=O)/C=C\[C@H](C)OC(=O)N(C)CCO)C[C@@H]2C)O1 | – | 11 nM | 0.63 nM | 0.009 nM | – | – | –
CC(=O)O[C@@H](C)/C=C\C(=O)N[C@@H]1C[C@H](C)[C@H](C/C=C(C)/C=C/[C@H]2O[C@H](C)C[C@@]3(CO3)[C@@H]2O)O[C@@H]1C | – | 0.56 nM | 0.55 nM | 0.1 nM | – | – | –
CO[C@@H]1C[C@@]2(CO2)[C@H](O)[C@@H](/C=C/C(C)=C/C[C@@H]2O[C@H](C)[C@H](NC(=O)/C=C\[C@H](C)OC(=O)N3CCCCC3)C[C@@H]2C)O1 | – | 3.35 nM | 3.71 nM | 0.11 nM | – | – | –
CC(/C=C/[C@H]1O[C@H](CC(=O)OC2CC2)C[C@@]2(CO2)[C@@H]1O)=C\C[C@@H]1O[C@H](C)[C@H](NC(=O)/C=C\[C@H](C)OC(=O)C(C)C)C[C@@H]1C | – | 16.1 nM | 2.15 nM | 0.218 nM | – | – | –
CC(=O)O[C@@H](C)/C=C\C(=O)N[C@@H]1C[C@H](C)[C@H](C/C=C(C)/C=C/[C@H]2O[C@H](CCN=[N+]=[N-])C[C@@]3(CO3)[C@@H]2O)O[C@@H]1C | – | 0.72 nM | 1.08 nM | 0.028 nM | – | – | –
CC(=O)O[C@@H](C)/C=C\C(=O)N[C@@H]1C[C@H](C)[C@H](C/C=C(C)/C=C/[C@H]2O[C@H](CCNC(=O)OC(C)(C)C)C[C@@]3(CO3)[C@@H]2O)O[C@@H]1C | – | 1.8 nM | 0.13 nM | 0.004 nM | – | – | –
CC(/C=C/[C@H]1O[C@H](CC(=O)OC(C)(C)C)C[C@@]2(CO2)[C@@H]1O)=C\C[C@@H]1O[C@H](C)[C@H](NC(=O)/C=C\[C@H](C)OC(=O)C(C)C)C[C@@H]1C | – | 4.83 nM | 11.3 nM | 0.099 nM | – | – | –
CC[C@H](C)[C@@H]([C@@H](CC(=O)N1CCC[C@H]1[C@H](OC)[C@@H](C)C(=O)N[C@H](C)[C@@H](O)c1ccccc1)OC)N(C)C(=O)[C@@H](NC(=O)[C@@H](NC)C(C)C)C(C)C (H-[NMeV]V[Dil][Dolaproine]-X1) | – | 88.2 nM | 0.096 nM | 0.068 nM | – | – | –
COC(=O)C[C@@H]1C[C@@]2(CO2)[C@H](O)[C@@H](/C=C/C(C)=C/C[C@@H]2O[C@H](C)[C@H](NC(=O)/C=C\[C@H](C)NC(=O)C(C)C)C[C@@H]2C)O1 | – | 384 nM | 6.16 nM | 0.058 nM | – | – | –
CC(/C=C/[C@H]1O[C@H](C)C[C@@]2(CO2)[C@@H]1O)=C\C[C@@H]1O[C@H](C)[C@H](NC(=O)/C=C\[C@H](C)NC(=O)C(C)C)C[C@@H]1C | – | 4.91 nM | 0.23 nM | 0.015 nM | – | – | –
CC(=O)O[C@@H](C)/C=C\C(=O)N[C@@H]1C[C@H](C)[C@H](C/C=C(C)/C=C/[C@H]2O[C@H](CC(=O)O)C[C@@]3(CO3)[C@@H]2O)O[C@@H]1C [THAILANSTATIN A] | – | > 400 nM | 419 nM | 296 nM | – | – | –
CO[C@@H]1C[C@@]2(CO2)[C@H](O)[C@@H](/C=C/C(C)=C/C[C@@H]2O[C@H](C)[C@H](NC(=O)/C=C\[C@H](C)OC(=O)N3CCOCC3)C[C@@H]2C)O1 | – | 13.8 nM | 0.49 nM | 0.006 nM | – | – | –
